The numbers were not newly measured in US20080233201A1, “Method for Preparing Calibrated Biodegradable Microspheres” (priority 2004, published 2008), which cites them from elsewhere.

The conditions of this series: at 20° C.

Regarding `CCOC(C)=O` [Ethyl acetate], the solubility in water is 8.7 g/100 g of water.
